The test system of one assay is heme oxygenase 1 (HMOX1). Nature of the assay: Expression array experiments (transcriptional changes). In kind it is cell-based. The following applies: multiple cell lines; data not shown.
A further assay has as its system T-47D cells. Nature of the assay: Cell viability assay (ATPlite), T-47D. It counts as cell-based. The following applies: Homo sapiens, T47D, 96 hours, read-out: Cell Growth, IC50.
The target of the next assay is LSD1 (Homo sapiens, UniProt O60341). Nature of the assay: LSD1 histone demethylase assay (LSD1 Inhibitor Screening Assay Kit). It counts as biochemical.

Method for LSD1: Briefly, test compounds were diluted to 20× the desired test concentration in 100% DMSO and 2.5 μL of the diluted drug sample was added to a black 384-well plate. The LSD1 enzyme stock was diluted 17-fold with assay buffer and 40 μM of the diluted LSD1 enzyme was added to the appropriate wells.
(§1) IC50 values are determined using GraphPad Prism 5 software. The data were entered as an X-Y plot into the software as percent inhibition for each concentration of the drug. The concentration values of the drug were log transformed and the nonlinear regression was carried out using the “sigmoidal dose-response (variable slope)” option within the GraphPad software to model the data and calculate IC50 values.
Method for T-47D cells: Cells were cultured according to the procedures provided. […] Cells were cultured at 37° C. and 5% CO2.
Cell viability was determined using ATPlite™ Luminescence Assay System (PerkinElmer Inc., Waltham, Mass.) using the various cell-lines described above and in Table 4. Briefly, cells were seeded in 96-well plates and then treated with different concentrations of inhibitor (0.1% final DMSO concentration). After 96-hours of incubation, ATPlite detection reagent was added directly to the culture well. Luminescence was read 5 minutes later on an Envision microplate reader.
as §1

For the molecule `C/C(=N\NC(=O)c1cccc(S(=O)(=O)N2CCOCC2)c1)c1cc(Cl)ccc1O` [Compound 12, (E)-N′-(1-(5-chloro-2-hydroxyphenyl)ethylidene)-3-(morpholinosulfonyl)benzohydrazide], the “transcriptional change of HMOX1” value in the assay with heme oxygenase 1 (HMOX1) is “one of the most consistently up-regulated genes”. With `C/C(=N\NC(=O)c1cccc(S(=O)(=O)N2CCOCC2)c1)c1cccc(Cl)c1F` [Compound 13, (E)-N′-(1-(3-chloro-2-fluorophenyl)ethylidene)-3-(morpholinosulfonyl)benzohydrazide], the half-inhibitory concentration (IC50) in the assay on T-47D cells was greater than 10000 nM. In turn, `C/C(=N\NC(=O)c1cccc(S(=O)(=O)N2CCC(C)CC2)c1)c1cc(Cl)ccc1O` [Compound 26, (E)-N′-(1-(5-chloro-2-hydroxyphenyl)ethylidene)-3-((4-methylpiperidin-1-yl)sulfonyl)benzohydrazide] gave an IC50 at LSD1 of 9.5 nM. `CNS(=O)(=O)c1cccc(C(=O)N/N=C(\C)c2cc(Cl)ccc2O)c1` [Compound 29, (E)-3-(2-(1-(5-chloro-2-hydroxyphenyl)ethylidene)hydrazinecarbonyl)-N-methylbenzenesulfonamide] registered a half-maximal inhibitory concentration (IC50) against LSD1 of 8.7 nM. With `C/C(=N\NC(=O)c1cccc(S(=O)(=O)N2CCN(C)CC2)c1)c1cc(Cl)ccc1O` [Compound 35, (E)-N′-(1-(5-chloro-2-hydroxyphenyl)ethylidene)-3-((4-methylpiperazin-1-yl)sulfonyl)benzohydrazide], the IC50 against LSD1 is less than 10 nM. On the same count and under the same terms, next, `O=C(c1cccc(S(=O)(=O)N2CCOCC2)c1)n1ccc(-c2cc(Cl)ccc2O)n1` [Compound 38, (3-(5-chloro-2-hydroxyphenyl)-1H-pyrazol-1-yl)(3-(morpholinosulfonyl)phenyl)methanone]: greater than 3000 nM.

These data come from patent US9266838B2, “Substituted (E)-N′-(1-phenylethylidene)benzohydrazide analogs as histone demethylase inhibitors” (University of Utah Research Foundation, priority 2011, dated 2016).
